Laboratory results reported in the supplement of paper PMC10307832.

compound: CN1CCC(CC1)OC2=CC(=C(C=C2)NC3=NC=C4C(=N3)N(C(=O)N4C)C5CCCC5)OC [AZ3146] + CCNC(=O)c1noc(-c2cc(C(C)C)c(O)cc2O)c1-c1ccc(CN2CCOCC2)cc1 [Luminespib] (partner 0.01 µM); test: relative viability (nuclei count vs DMSO), 5 days (fraction); higher = more cells survive; conditions: first compound 0.08 µM
Summary of the method: (§1)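 Relative viability divides the nuclei count in treated wells by that in vehicle wells. Lung cancer cell lines were seeded in 1536-well plates, dosed by pin tool the next day, and fixed and stained after 5 days in one step with final 0.05% Triton X-100, 1% formaldehyde and 1 ug/ml Hoechst. Dosing was a single drug or a fixed anchor-drug dose plus five library-drug doses (not always all listed) in √10 steps, and values are medians of duplicate plates imaged at 4×.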

Cell Line | relative viability
HCC-827 | 0.62
CAL-12T | 0.267
HCC-15 | 0.262
HOP-62 | 0.943
NCI-H460 | 0.0349
LU99A | 0.247
NCI-H2085 | 0.417
A-427 | 0.819
NCI-H520 | 0.243
NCI-H838 | 0.31
NCI-H1792 | 0.345
NCI-H596 | 1.01
NCI-H3122 | 0.12
NCI-H1395 | 0.72
201T | 0.994
NCI-H1993 | 0.86
NCI-H1355 | 0.744
NCI-H2405 | 0.923
NCI-H1437 | 1.12
NCI-H661 | 0.928
COR-L 105 | 0.776
H3255 | 0.841
NCI-H2347 | 0.375
NCI-H1975 | 0.215
NCI-H441 | 0.274
NCI-H1915 | 0.717
NCI-H2087 | 0.232
NCI-H1793 | 0.208

same assay, conditions: first compound 0.253 µM

Cell Line | relative viability
NCI-H358 | 0.383
NCI-H322M | 0.847
LC-2-ad | 1.16
HCC-827 | 0.616
CAL-12T | 0.573
HCC-15 | 0.393
HOP-62 | 0.865
NCI-H460 | 0.0347
LU99A | 0.236
NCI-H2085 | 0.416
A-427 | 0.895
NCI-H520 | 0.214
NCI-H838 | 0.284
NCI-H1792 | 0.478
NCI-H596 | 0.995
NCI-H3122 | 0.113

Cell Line | relative viability
BEN | 0.224
NCI-H1395 | 0.691
201T | 1.03
NCI-H1993 | 0.92
NCI-H1355 | 0.721
NCI-H2405 | 0.704
NCI-H1437 | 1.15
NCI-H661 | 0.968
COR-L 105 | 0.8
H3255 | 0.801
NCI-H2347 | 0.298
NCI-H1975 | 0.173
NCI-H441 | 0.465
NCI-H1915 | 0.888
NCI-H2087 | 0.182
NCI-H1793 | 0.173

same assay, conditions: first compound 0.8 µM

Cell Line | relative viability
NCI-H358 | 0.51
NCI-H322M | 0.715
LC-2-ad | 1.08
HCC-827 | 0.574
CAL-12T | 0.423
HCC-15 | 0.531
HOP-62 | 0.87
NCI-H460 | 0.0408
LU99A | 0.327
NCI-H2085 | 0.394
A-427 | 0.913
NCI-H520 | 0.223
NCI-H838 | 0.281
NCI-H1792 | 0.571
NCI-H596 | 0.831
NCI-H3122 | 0.108

Cell Line | relative viability
BEN | 0.637
NCI-H1395 | 0.634
201T | 0.979
NCI-H1993 | 0.911
NCI-H1355 | 0.724
NCI-H2405 | 0.967
NCI-H1437 | 1.11
NCI-H661 | 0.96
COR-L 105 | 0.815
H3255 | 0.841
NCI-H2347 | 0.551
NCI-H1975 | 0.162
NCI-H441 | 0.353
NCI-H1915 | 0.913
NCI-H2087 | 0.217
NCI-H1793 | 0.202

same assay, conditions: first compound 2.53 µM

Cell Line | relative viability
NCI-H358 | 0.508
NCI-H322M | 0.924
LC-2-ad | 1.09
HCC-827 | 0.609
CAL-12T | 0.556
HCC-15 | 0.785
HOP-62 | 0.959
NCI-H460 | 0.0305
LU99A | 0.262
NCI-H2085 | 0.427
A-427 | 0.879
NCI-H520 | 0.255
NCI-H838 | 0.273
NCI-H1792 | 0.435
NCI-H596 | 1.03
NCI-H3122 | 0.111

Cell Line | relative viability
BEN | 0.282
NCI-H1395 | 0.772
201T | 1.09
NCI-H1993 | 1.06
NCI-H1355 | 0.767
NCI-H2405 | 0.756
NCI-H1437 | 1.15
NCI-H661 | 0.896
COR-L 105 | 0.824
H3255 | 0.911
NCI-H2347 | 0.53
NCI-H1975 | 0.204
NCI-H441 | 0.38
NCI-H1915 | 0.875
NCI-H2087 | 0.209
NCI-H1793 | 0.145

same assay, conditions: first compound 8 µM

Cell Line | relative viability
NCI-H358 | 0.394
NCI-H322M | 0.787
LC-2-ad | 1.07
HCC-827 | 0.598
CAL-12T | 0.341
HCC-15 | 0.552
HOP-62 | 0.992
NCI-H460 | 0.0293
LU99A | 0.477
NCI-H2085 | 0.608
A-427 | 0.818
NCI-H520 | 0.248
NCI-H838 | 0.264
NCI-H1792 | 0.431
NCI-H596 | 0.837
NCI-H3122 | 0.0978

Cell Line | relative viability
BEN | 0.269
NCI-H1395 | 0.719
201T | 1.04
NCI-H1993 | 1.02
NCI-H1355 | 0.766
NCI-H2405 | 0.914
NCI-H1437 | 1.07
NCI-H661 | 0.688
COR-L 105 | 0.678
H3255 | 0.866
NCI-H2347 | 0.644
NCI-H1975 | 0.257
NCI-H441 | 0.473
NCI-H1915 | 0.919
NCI-H2087 | 0.199
NCI-H1793 | 0.178

compound: CN1CCC(CC1)OC2=CC(=C(C=C2)NC3=NC=C4C(=N3)N(C(=O)N4C)C5CCCC5)OC [AZ3146] + C[C@]1(O)C[C@@H](c2nc(-c3ccc4ccc(-c5ccccc5)nc4c3)c3c(N)nccn32)C1 [Linsitinib] (partner 1 µM); test: as above; conditions: first compound 0.08 µM
Summary of the method: as §1

Cell Line | relative viability
NCI-H358 | 0.868
NCI-H322M | 0.937
LC-2-ad | 0.782
HCC-827 | 0.907
CAL-12T | 0.867
HCC-15 | 0.815
HOP-62 | 1.05
NCI-H460 | 0.719
LU99A | 0.419
NCI-H2085 | 0.898
A-427 | 1.08
NCI-H520 | 0.843
NCI-H838 | 0.921
NCI-H1792 | 0.436
NCI-H596 | 1.1
NCI-H3122 | 1.02

Cell Line | relative viability
NCI-H1395 | 0.986
201T | 0.876
NCI-H1993 | 0.689
NCI-H1355 | 0.774
NCI-H2405 | 0.973
NCI-H1437 | 0.967
NCI-H661 | 0.61
COR-L 105 | 0.963
H3255 | 0.9
NCI-H2347 | 1.01
NCI-H1975 | 0.988
NCI-H441 | 0.479
NCI-H1915 | 1.09
NCI-H2087 | 0.816
NCI-H1793 | 0.841

same assay, conditions: first compound 0.253 µM

Cell Line | relative viability
NCI-H358 | 0.744
NCI-H322M | 0.884
LC-2-ad | 0.886
HCC-827 | 0.889
CAL-12T | 0.756
HCC-15 | 0.946
HOP-62 | 0.978
NCI-H460 | 0.824
LU99A | 0.556
NCI-H2085 | 0.848
A-427 | 1.07
NCI-H520 | 0.896
NCI-H838 | 1
NCI-H1792 | 0.551
NCI-H596 | 1.01
NCI-H3122 | 1.06

Cell Line | relative viability
BEN | 0.919
NCI-H1395 | 1.1
201T | 1.06
NCI-H1993 | 0.731
NCI-H1355 | 0.854
NCI-H1437 | 0.996
NCI-H661 | 0.6
COR-L 105 | 1.2
H3255 | 0.987
NCI-H2347 | 0.893
NCI-H1975 | 0.986
NCI-H441 | 0.525
NCI-H1915 | 1.12
NCI-H2087 | 0.952
NCI-H1793 | 0.921

same assay, conditions: first compound 0.8 µM

Cell Line | relative viability
NCI-H358 | 0.65
NCI-H322M | 0.868
LC-2-ad | 0.775
HCC-827 | 0.946
CAL-12T | 0.824
HCC-15 | 0.874
HOP-62 | 1.06
NCI-H460 | 0.65
LU99A | 0.589
NCI-H2085 | 0.956
A-427 | 1.04
NCI-H520 | 1.05
NCI-H838 | 0.97
NCI-H1792 | 0.523
NCI-H596 | 1.01
NCI-H3122 | 1.03

Cell Line | relative viability
BEN | 0.703
NCI-H1395 | 1.28
201T | 1.05
NCI-H1993 | 0.782
NCI-H1355 | 0.825
NCI-H2405 | 1.04
NCI-H1437 | 1.01
NCI-H661 | 0.603
COR-L 105 | 0.891
H3255 | 0.961
NCI-H2347 | 0.891
NCI-H1975 | 1
NCI-H441 | 0.474
NCI-H1915 | 1.09
NCI-H2087 | 1.11
NCI-H1793 | 0.638

same assay, conditions: first compound 2.53 µM

Cell Line | relative viability
NCI-H358 | 0.75
NCI-H322M | 0.991
LC-2-ad | 0.845
HCC-827 | 1.02
CAL-12T | 0.885
HCC-15 | 0.879
HOP-62 | 1.06
NCI-H460 | 0.787
LU99A | 0.502
NCI-H2085 | 0.912
A-427 | 1.19
NCI-H520 | 1.12
NCI-H838 | 0.971
NCI-H1792 | 0.6
NCI-H596 | 1.04
NCI-H3122 | 1.04

Cell Line | relative viability
BEN | 1.01
NCI-H1395 | 1.37
201T | 1.05
NCI-H1993 | 0.789
NCI-H1355 | 0.864
NCI-H2405 | 0.937
NCI-H1437 | 1.04
NCI-H661 | 0.584
COR-L 105 | 0.888
H3255 | 0.998
NCI-H2347 | 0.887
NCI-H1975 | 0.978
NCI-H441 | 0.635
NCI-H1915 | 1.1
NCI-H2087 | 1.02
NCI-H1793 | 0.813

same assay, conditions: first compound 8 µM

Cell Line | relative viability
NCI-H358 | 0.461
NCI-H322M | 0.842
LC-2-ad | 0.863
HCC-827 | 1.01
CAL-12T | 0.932
HCC-15 | 0.879
HOP-62 | 1.05
NCI-H460 | 0.244
LU99A | 0.557
NCI-H2085 | 0.727
A-427 | 1.12
NCI-H520 | 0.786
NCI-H838 | 0.79
NCI-H1792 | 0.65
NCI-H596 | 1.1
NCI-H3122 | 1.06

Cell Line | relative viability
BEN | 0.843
NCI-H1395 | 1.05
201T | 1.06
NCI-H1993 | 0.704
NCI-H1355 | 0.885
NCI-H2405 | 0.747
NCI-H1437 | 1.03
NCI-H661 | 0.616
COR-L 105 | 0.787
H3255 | 0.902
NCI-H2347 | 0.988
NCI-H1975 | 0.352
NCI-H441 | 0.621
NCI-H1915 | 1.11
NCI-H2087 | 1
NCI-H1793 | 1.02
